Measurements published in ChEMBL document CHEMBL1151682, “Insecticidal neolignans from Piper decurrens” (J Nat Prod, 1996).
Calls of active or inactive are those of the source. No cut-off for these calls is given here.

Tested on: Aedes atropalpus
Experiment: Toxicity in sOchlerotatus atropalpus second-instar larvae at 10 ppm after 24 hrs
Assay type: functional, organism-based

| Structure (SMILES) | Activity |
| --- | --- |
| C/C=C/c1ccc2oc(-c3ccc(O)cc3)c(C)c2c1 | Active |
| c1csc(-c2ccc(-c3cccs3)s2)c1 | Active |
| C[C@H]1c2cc(C=O)ccc2O[C@@H]1c1ccc(O)cc1 | inactive |
